Data taken from ChEMBL document CHEMBL3301361, “Experimental in vitro DMPK and physicochemical data on a set of publicly disclosed compounds”.

Test: physchem
Conditions: octan-1-ol/water, pH 7.4, LogD7.4

SMILES | logD
Cc1ccc(Cl)c(Nc2cc(Nc3ccc(OCC(O)CN(C)C)cc3)ncn2)c1 (stereo not given) | 2.16
CN(C)CC(O)COc1ccc(Nc2cc(N(CC#N)c3cc(Cl)ccc3Cl)ncn2)cc1 (stereo not given) | 2.1
Cc1ccc(F)c(Nc2ccnc(Nc3ccc(OCC(O)CN(C)C)cc3)n2)c1 (stereo not given) | 2.1
CC(C)C(NC(=O)Cn1c(-c2cccs2)ncc(NC(=O)OCc2ccccc2)c1=O)C(=O)C(F)(F)F (stereo not given) | 2.02
CC(C)C(NC(=O)Cn1c(-c2cccnc2)ncc(NC(=O)OCc2ccccc2)c1=O)C(=O)C(F)(F)F (stereo not given) | 2.15
CC(C)C(NC(=O)Cn1c(-c2ccccc2)ccc(NC(=O)NCc2ccccn2)c1=O)C(=O)C(F)(F)F (stereo not given) | 2.15
CC(C)C(NC(=O)Cn1c(-c2ccccc2)ncc(NC(=O)OCc2ccccc2)c1=O)C(=O)C(F)(F)F (stereo not given) | 2.12
O=S(=O)(NCC(c1ccccc1)N1CCCCCC1)c1cccnc1 (stereo not given) | 2.1
CCCCCCCN(CCc1ccc(OC(C)(C)C(=O)O)cc1)C(=O)Nc1ccc(F)cc1F | 1.93
O=CN1CC=C(c2c(F)cc(N3C[C@H](COc4ccon4)OC3=O)cc2F)CC1 | 2.01
CC(C)C(NC(=O)Cn1c(-c2ccccc2)cc2c(=O)n(CCN3CCOCC3)c(=O)[nH]c2c1=O)C(=O)C(F)(F)F (stereo not given) | 1.91
CC(C)C(NC(=O)Cn1c(-c2ccccc2)ccc(NC(=O)CN2CCOCC2)c1=O)C(=O)C(F)(F)F (stereo not given) | 2
Cc1ccc(S(=O)(=O)N2CCN(C(=O)c3ccco3)CC2)cc1 | 2.17
CC1(C(=O)NC2CCCCC2)CCC(=O)N1Cc1cccs1 (stereo not given) | 2.15
CCCc1c(OCc2ccc(C(=O)O)cc2)ccc(C(C)=O)c1O | 2.1
Cc1noc(C)c1CCC1CCN(S(=O)(=O)CC2(N(O)C=O)CCC(F)(F)CC2)CC1 | 2.1
CCC(c1nc2ccsc2c(=O)n1Cc1ccc(OC)cc1)N(CCCN)C(=O)c1ccc(C)cc1 (stereo not given) | 2.15
CCC(c1nc2sccc2c(=O)n1Cc1ccccc1)N(CCCN)C(=O)c1ccc(C)cc1 (stereo not given) | 2.06
CN[C@@H](C)C(=O)N[C@H](C(=O)N[C@H]1CCCN(CCc2ccc(C)cc2)C1)C(C)(C)C | 2.05
CN1CCCC(CN2CCN(C(=O)Nc3ccc(Cl)c(Cl)c3)CC2)C1 (stereo not given) | 1.98
CCN1CCC[C@@H](CN2CCN(C(=O)Nc3ccc(Cl)c(Cl)c3)CC2)C1 | 1.94
CC(C)N1CCN[C@@H](CN2CCN(C(=O)Nc3ccc(Cl)c(Cl)c3)CC2)C1 | 1.92
CCN1CCOC(C(=O)N2CCN(C(=O)Nc3ccc(Cl)c(Cl)c3)CC2)C1 (stereo not given) | 2.1

SMILES | logD
CC(C)Cn1c(=O)n(C)c(=O)c2c(C(=O)N3CC[C@@H](O)C3)c(Cc3cccc4ncccc34)sc21 | 1.98
COc1cc(N2CCCN(C)CC2)c2[nH]c(C(=O)Nc3ccc(N4CCOCC4)cc3)cc(=O)c2c1 | 2.1
CC(c1cc2ccccc2o1)n1[nH]c(=O)c2[nH]c3cc(Cl)ccc3c(=O)c2c1=O (stereo not given) | 2.1
CS(=O)(=O)NCC(NC(=O)C1(N)CCN(c2ncnc3[nH]ccc23)CC1)c1ccc(Cl)cc1 (stereo not given) | 2.1
Cc1cc(-c2ccc(N3C[C@H](Cn4ccnn4)OC3=O)cc2F)on1 | 1.99
C[C@@H](NC(=O)[C@H]1CCCCN1)c1ccc(Nc2ncc3cc(-c4ccncc4)ccc3n2)cc1 | 2.15
Cc1cc(O)ccc1N1C(=O)c2ccc(O)cc2C1=O | 2
CC[S+]([O-])c1ncccc1C1(O)CCN(CC23CC(c4ccccc42)c2ccccc23)CC1 (stereo not given) | 2
CC(C)C(NC(=O)Cn1c(-c2ccccc2)ccc(NC(=O)NCc2ccncc2)c1=O)C(=O)C(F)(F)F (stereo not given) | 2.16
C[C@@](O)(C(=O)Nc1ccc(S(=O)(=O)NCCCO)cc1Cl)C(F)(F)F | 2.1
CN(C)CC(O)COc1ccc(Nc2cc(N(CCC#N)c3cc(Cl)ccc3Cl)ncn2)cc1 (stereo not given) | 2.1
CC(C)Cn1c(=O)n(C)c(=O)c2c(C(=O)N3C[C@H](O)CO3)c(Cc3c[nH]c4ncccc34)sc21 | 2.04
O=C1c2ccccc2C(=O)N1c1ccc(O)cc1 | 2
O=C1c2ccc(O)cc2C(=O)N1c1ccc(O)cc1F | 2.1
Cc1ncc(-c2ccnc(Nc3ccc(C(=O)NCCN(C)C)c(F)c3)n2)n1C(C)C | 1.96
Cc1ncc(-c2nc(Nc3ccc(C(=O)N4CCCN(C)CC4)cc3)ncc2F)n1C(C)C | 2.02
Cc1ncc(-c2nc(Nc3ccc(C(=O)NC4CCN(C)CC4)cc3)ncc2F)n1C(C)C | 2.13
CN1CCN(C(=O)c2cc(-c3ccccc3)sc2NC(N)=O)CC1 | 2.17
O=C1/C(=N\O)c2ccccc2N1Cc1ccccc1[N+](=O)[O-] | 2.07
C[C@@](O)(C(=O)Nc1ccc(S(=O)(=O)NCCN2CCOCC2)cc1Cl)C(F)(F)F | 2.14
COc1cc(C(=O)NS(=O)(=O)c2ccccc2)ccc1Cn1ccc2ccc(C(=O)NCC3CCCC3)cc21 | 1.93
CC(O)(C(=O)Nc1ccc(S(=O)(=O)c2ccncc2)cc1)C(F)(F)F (stereo not given) | 2.15

The next lines start with the values.

logD | SMILES
2 | CC(=O)NC1CC(C)N(C(=O)c2ccccc2)c2ccccc21 (stereo not given)
2.07 | Cc1cc2n[nH]c(=O)n2c2cc(-c3ccco3)ccc12
2 | O=C(OCCN1CCCCC1)c1c[nH]c2ccccc12
1.92 | NC(=O)c1cccc(OC2CCN(Cc3ccccc3)CC2)c1
2.1 | Cc1ccc(-n2[nH]c(=O)c3cccnc32)cc1
1.92 | Nc1[nH]nc2cccc(Cl)c12
2.08 | CC(O)(C(=O)Nc1ccc(S(=O)(=O)c2cccnc2)cc1)C(F)(F)F (stereo not given)
1.99 | Cc1cc2[nH]c(=O)c(O)cc(=O)c2cc1C
2 | COc1cc(O)cc2occ(-c3ccc(O)cc3)c(=O)c12
2.04 | Cc1nc(N)c2nc(O)n(Cc3ccccc3)c2n1
2.1 | O=c1c2ccccc2nc2ccccn12
2.02 | FC(F)c1nc2ccccc2[nH]1
1.97 | Nc1ccc(Cl)c(-c2nc3ncccc3o2)c1
2.08 | Cc1cc(Nc2ccc(F)cc2)nc(N)n1
2.1 | COc1cccc2[nH]ncc12
2.07 | CCCNC(=O)c1nnc2c(-c3ncccn3)c(F)ccc2c1N
1.99 | CCOc1cc2nnc(C(N)=O)c(Nc3cccc(Cl)c3F)c2cc1N1CCN(C)CC1
2.05 | COc1cc2c(Nc3c(Cl)ccc4c3OCO4)ncnc2cc1OCCCN1CCCCC1

logD | SMILES
2 | Cc1cccc(NC(=O)NCC(c2cccnc2)N2CCOCC2)c1 (stereo not given)
1.97 | Oc1ncnc2onc(-c3ccc(F)cc3)c12
2 | COc1cc(F)ccc1-c1cncc(CNC[C@@H]2CCCO2)n1
2.06 | COc1cc(F)ccc1-c1cccc(CNC2CCCC2)n1
2.09 | Cc1ccc(/C=C(\C#N)C(N)=O)cc1
2.12 | CCN(CCO)CCCOc1cc2ncnc(Nc3cc(CC(=O)Nc4cccc(F)c4)[nH]n3)c2cc1OC
1.95 | CCCSc1ncccc1C(=O)N1CCCC1c1ccncc1 (stereo not given)
2 | Cn1ccc2c(-c3nc(CS(C)(=O)=O)cc(N4CCOCC4)n3)cccc21
1.94 | C1=CCC(c2cc3ccccc3o2)CNC1 (stereo not given)
2 | Cn1c(N)nc(CCc2ccccc2)cc1=O
2.1 | Cn1c(N)nc(CCc2ccc3cc[nH]c3c2)cc1=O
2.03 | CN1C(=O)CC(C)(CCc2cccc(-c3ccccc3)c2)N=C1N (stereo not given)
2 | O=C1c2ccc(O)cc2C(=O)N1c1cccc(O)c1
2.11 | CN1Cc2c(N)cccc2[C@@H](c2ccccc2)C1
2.16 | NC(N)=Nc1cc(Cl)nc(-c2ccccc2)n1
1.97 | CN1CCN(C(=O)c2cc3cc(F)ccc3[nH]2)CC1
2.14 | COc1cc(OC)cc(-c2cc3cnc(N)nc3nc2N)c1
